The text below walks through data of ChEMBL document CHEMBL2331227, “Khayseneganins A-H, limonoids from Khaya senegalensis” (2013).

One may read the MIC as the smallest concentration in the dilution series that meets the test's criterion for growth inhibition.

What all share (format): functional
The test system of assay [1] is Staphylococcus aureus. Briefly: Antimicrobial activity against Staphylococcus aureus ATCC 25923 by two-fold dilution method.
The next assay relates to Pseudomonas aeruginosa. Put plainly: Antimicrobial activity against Pseudomonas aeruginosa ATCC 27853 by two-fold dilution method.
The test system of assay [2] is Staphylococcus aureus. Put plainly: Antimicrobial activity against methicillin-resistant Staphylococcus aureus isolate 92 by two-fold dilution method.
The subject of assay [3] is Staphylococcus aureus. Briefly: Antimicrobial activity against methicillin-resistant Staphylococcus aureus isolate 98 by two-fold dilution method.

Each structure is given as a SMILES string. In brackets after ≈: the same amount, converted by molar mass.

As for `COC(=O)[C@@H](OC(C)=O)[C@H]1C(C)(C)C(=O)[C@@H]2C=C3[C@@H]4CC(=O)O[C@@H](c5ccoc5)[C@]4(C)CC[C@@H]3[C@@]1(C)C2=O` [khayalenoid E], the MIC with Staphylococcus aureus [1], with Pseudomonas aeruginosa, in the assay on Staphylococcus aureus [2] and against Staphylococcus aureus [3] was 25 µg/mL (≈ 47.5 µM) in each case.
`COC(=O)[C@H](O)[C@@H]1[C@@]2(C)[C@H]3CC[C@]4(C)C(=CC(=O)O[C@H]4c4ccoc4)[C@]3(O)[C@H]3[C@@H](O)C(=O)[C@@]1(C)C[C@]32OC(C)=O` (relative stereo): the MIC with Staphylococcus aureus [1], with Pseudomonas aeruginosa, against Staphylococcus aureus [2] and against Staphylococcus aureus [3] was above 50 µg/mL throughout.
For the compound `CC(=O)O[C@H]1C[C@@H](O)C(C)(C)[C@@H]2C[C@@H](OC(C)=O)[C@]3(C)[C@H](CC[C@@]4(C)[C@@H](c5ccoc5)OC(=O)[C@H]5O[C@@]534)[C@@]12C` [3-DEACETYLKHIVORIN], the MIC in the assay on Staphylococcus aureus [1] turned out to be 25 µg/mL (≈ 45.9 µM); in the assay with Pseudomonas aeruginosa, 12.5 µg/mL (≈ 23 µM); against Staphylococcus aureus [2], 12.5 µg/mL (≈ 23 µM); in the assay on Staphylococcus aureus [3], 12.5 µg/mL (≈ 23 µM).
In the case of `CC(=O)O[C@@H]1C[C@H](O)[C@]2(C)[C@H]3CC[C@@]4(C)[C@@H](c5ccoc5)OC(=O)[C@H]5O[C@]54[C@]3(C)[C@H](OC(C)=O)C[C@H]2C1(C)C`, the MIC with Staphylococcus aureus [1] came out at 25 µg/mL (≈ 45.9 µM); in the assay with Pseudomonas aeruginosa it was 25 µg/mL (≈ 45.9 µM); in the assay on Staphylococcus aureus [2] it was 25 µg/mL (≈ 45.9 µM); in the assay with Staphylococcus aureus [3], 12.5 µg/mL (≈ 23 µM).
Regarding `COC(=O)C[C@H]1C(C)(C)[C@H](OC(C)=O)[C@]2(O)C=C3[C@H]([C@H](OC(C)=O)C[C@]4(C)[C@H]3CC(=O)O[C@H]4c3ccoc3)[C@@]1(C)C2=O`, the MIC in the assay on Staphylococcus aureus [1], against Pseudomonas aeruginosa, against Staphylococcus aureus [2] and in the assay with Staphylococcus aureus [3] was 25 µg/mL (≈ 42.6 µM) in each case.
In the case of `CC(=O)O[C@H]1C[C@@H](OC(C)=O)C(C)(C)[C@@H]2CC(=O)[C@]3(C)[C@H](CC[C@@]4(C)[C@@H](c5ccoc5)OC(=O)[C@H]5O[C@]543)[C@@]12C`, the MIC in the assay with Staphylococcus aureus [1] amounted to 50 µg/mL (≈ 92.1 µM); in the assay with Pseudomonas aeruginosa, 25 µg/mL (≈ 46.1 µM); against Staphylococcus aureus [2], 50 µg/mL (≈ 92.1 µM); with Staphylococcus aureus [3] it was 25 µg/mL (≈ 46.1 µM).
For `COC(=O)[C@H](O)[C@H]1C(C)(C)[C@H](OC(C)=O)[C@@H]2CC3=C4CC(=O)O[C@@H](c5ccoc5)[C@]4(C)CC[C@@H]3[C@@]1(C)C2=O` [SWIETENOLIDE-3-ACETATE], the MIC against Staphylococcus aureus [1], in the assay with Pseudomonas aeruginosa, against Staphylococcus aureus [2] and with Staphylococcus aureus [3] was 25 µg/mL (≈ 47.3 µM) throughout.
In the case of `CN[C@H](CC(C)C)C(=O)N[C@H]1C(=O)N[C@@H](CC(N)=O)C(=O)N[C@H]2C(=O)N[C@H]3C(=O)N[C@H](C(=O)N[C@H](C(=O)O)c4cc(O)cc(O)c4-c4cc3ccc4O)[C@H](O)c3ccc(c(Cl)c3)Oc3cc2cc(c3O[C@@H]2O[C@H](CO)[C@@H](O)[C@H](O)[C@H]2O[C@H]2C[C@](C)(N)[C@H](O)[C@H](C)O2)Oc2ccc(cc2Cl)[C@H]1O.Cl` [VANCOMYCIN HYDROCHLORIDE], the MIC against Staphylococcus aureus [1] was 0.78 µg/mL; in the assay on Pseudomonas aeruginosa it was 25 µg/mL; in the assay with Staphylococcus aureus [2], 0.78 µg/mL; against Staphylococcus aureus [3], 0.78 µg/mL.
`COC(=O)C[C@H]1C(C)(C)[C@H](OC(C)=O)[C@@H]2C=C3[C@H]([C@H](OC(C)=O)C[C@]4(C)[C@H]3CC(=O)O[C@H]4c3ccoc3)[C@@]1(C)C2=O` [SWIETMANIN B]: the MIC in the assay with Staphylococcus aureus [1] was 25 µg/mL (≈ 43.8 µM); in the assay on Pseudomonas aeruginosa, 12.5 µg/mL (≈ 21.9 µM); against Staphylococcus aureus [2], 50 µg/mL (≈ 87.6 µM); in the assay on Staphylococcus aureus [3] it was 12.5 µg/mL (≈ 21.9 µM).
For the compound `CC(=O)O[C@H]1C[C@@H](O)C(C)(C)[C@@H]2C[C@@H](O)[C@]3(C)[C@H](CC[C@@]4(C)[C@@H](c5ccoc5)OC(=O)[C@H]5O[C@@]534)[C@@]12C`, the MIC in the assay on Staphylococcus aureus [1], against Pseudomonas aeruginosa, in the assay with Staphylococcus aureus [2] and in the assay on Staphylococcus aureus [3] was above 50 µg/mL throughout.
Take `COC(=O)[C@H](O)[C@H]1C(C)(C)C(=O)[C@@H]2C[C@]3(O)[C@@H]4CC(=O)O[C@@H](c5ccoc5)[C@]4(C)CC[C@@H]3[C@@]1(C)C2=O` [KHAYANONE]: the minimum inhibitory concentration (MIC) was 25 µg/mL (≈ 49.7 µM) in the assay with Staphylococcus aureus [1], above 50 µg/mL with Pseudomonas aeruginosa, 25 µg/mL (≈ 49.7 µM) in the assay on Staphylococcus aureus [2] and 25 µg/mL (≈ 49.7 µM) against Staphylococcus aureus [3].
With `COC(=O)C[C@H]1C(C)(C)[C@H](O)[C@@H]2C=C3[C@H]([C@H](OC(C)=O)C[C@]4(C)[C@H]3CC(=O)O[C@H]4c3ccoc3)[C@@]1(C)C2=O` [Swietmanin C], the MIC against Staphylococcus aureus [1], in the assay on Pseudomonas aeruginosa, with Staphylococcus aureus [2] and against Staphylococcus aureus [3] was above 50 µg/mL in each case.
Regarding `C=C1[C@@H]2CC[C@@]3(C)[C@H](c4ccoc4)OC(=O)C[C@]13O[C@H]1CC(=O)OC(C)(C)[C@H]([C@@H](O)C(=O)OC)[C@]12C` (relative stereo), the MIC came to 50 µg/mL (≈ 99.5 µM) with Staphylococcus aureus [1], 25 µg/mL (≈ 49.7 µM) in the assay with Pseudomonas aeruginosa, 25 µg/mL (≈ 49.7 µM) in the assay on Staphylococcus aureus [2] and 50 µg/mL (≈ 99.5 µM) against Staphylococcus aureus [3].
For the compound `COC(=O)C[C@H]1[C@@]2(C)C[C@]3(O)O[C@@]4(CC(=O)[C@H]2O)[C@H]2CC(=O)O[C@@H](c5ccoc5)[C@]2(C)CC[C@@H]4[C@]13C`, the MIC with Staphylococcus aureus [1], with Pseudomonas aeruginosa, against Staphylococcus aureus [2] and in the assay with Staphylococcus aureus [3] was above 50 µg/mL throughout.
In the case of `COC(=O)[C@H](O)[C@H]1[C@]2(C)C[C@]3(OC(C)=O)[C@@H]4[C@@](OC)(O[C@]56CC(=O)O[C@@H](c7ccoc7)[C@]5(C)CC[C@H]([C@]13C)[C@@]46O)[C@H]2O` (relative stereo), the MIC with Staphylococcus aureus [2] and in the assay on Staphylococcus aureus [3] was above 50 µg/mL in each case.
Consider `COC(=O)C[C@H]1C(C)(C)[C@H](OC(C)=O)[C@@H]2C=C3[C@@H]4CC(=O)O[C@@H](c5ccoc5)[C@]4(C)CC[C@@H]3[C@@]1(C)C2=O`, for which the MIC in the assay with Staphylococcus aureus [1] worked out at 25 µg/mL (≈ 48.8 µM); with Pseudomonas aeruginosa, 12.5 µg/mL (≈ 24.4 µM); in the assay with Staphylococcus aureus [2], 12.5 µg/mL (≈ 24.4 µM); in the assay with Staphylococcus aureus [3], 12.5 µg/mL (≈ 24.4 µM).
For `C=C1[C@H]2CC[C@]3(C)[C@H](c4ccoc4)OC(=O)C[C@@]13O[C@H]1CC(=O)OC(C)(C)[C@@H](CC(=O)OC)[C@@]12C` [METHYL IVORENSATE], the minimum inhibitory concentration (MIC) against Staphylococcus aureus [1], with Pseudomonas aeruginosa, against Staphylococcus aureus [2] and against Staphylococcus aureus [3] was above 50 µg/mL in each case.
For `CC1(C)C(=O)[C@@H]2C[C@@]34O[C@]2(O)[C@]2(COC(=O)C[C@@H]12)[C@H]3CC[C@]1(C)[C@H]4CC(=O)O[C@H]1c1ccoc1` [SENEGANOLIDE], the MIC in the assay on Staphylococcus aureus [1], against Pseudomonas aeruginosa, with Staphylococcus aureus [2] and against Staphylococcus aureus [3] was above 50 µg/mL throughout.
